This passage reports IC50 results from BindingDB's records for doi:10.1016/j.bmcl.2008.01.038 (Inspire Pharmaceuticals, 2008).

A short description of this assay: Antagonist activity at P2Y12 receptor assessed as platelet aggregation by washed platelet assay.

With `CCNC(=O)Nc1ncnc2c1ncn2[C@@H]1O[C@H](CN)[C@H]2O[C@H](/C=C/c3ccccc3)O[C@H]21`, the IC50 worked out at 4.73 µM.
Turning to `CCNC(=O)Nc1ncnc2c1ncn2[C@@H]1O[C@H](CSCC(O)CO)[C@H]2O[C@H](/C=C/c3ccccc3)O[C@H]21` (stereo partly specified), the IC50 stood at 9.9 µM.
With `CCNC(=O)Nc1ncnc2c1ncn2[C@@H]1O[C@H](CS(=O)(=O)CC(=O)O)[C@H]2O[C@H](/C=C/c3ccccc3)O[C@H]21`, the IC50 came out at 2.48 µM.
With `CCNC(=O)Nc1ncnc2c1ncn2[C@@H]1O[C@H](CNCc2ccccc2F)[C@H]2O[C@H](/C=C/c3ccccc3)O[C@H]21`, the IC50 came to 2.55 µM.
In the case of `CCNC(=O)Nc1ncnc2c1ncn2[C@@H]1O[C@H](CNC(=O)c2ccco2)[C@H]2O[C@H](/C=C/c3ccccc3)O[C@H]21`, the IC50 worked out at 4.86 µM.
Regarding `CCNC(=O)Nc1ncnc2c1ncn2[C@@H]1O[C@H](CNCC2CC2C(=O)OCC)[C@H]2O[C@H](/C=C/c3ccccc3)O[C@H]21` (stereo partly specified), the IC50 came to 4.33 µM.
Regarding `CCNC(=O)Nc1ncnc2c1ncn2[C@@H]1O[C@H](CO)[C@H]2O[C@H](/C=C/c3ccccc3)O[C@H]21`, the IC50 is 1.27 µM.
On to `CCNC(=O)Nc1ncnc2c1ncn2[C@@H]1O[C@H](CSCC(=O)O)[C@H]2O[C@H](/C=C/c3ccccc3)O[C@H]21`, for which the IC50 was determined as 3.8 µM.
For `CCNC(=O)Nc1ncnc2c1ncn2[C@@H]1O[C@H](CCC(=O)O)[C@H]2O[C@H](/C=C/c3ccccc3)O[C@H]21`, the IC50 was 0.495 µM.
With `CCNC(=O)Nc1ncnc2c1ncn2[C@@H]1O[C@H](CNCC(=O)O)[C@H]2O[C@H](/C=C/c3ccccc3)O[C@H]21`, the IC50 amounted to 0.513 µM.
`CCNC(=O)Nc1ncnc2c1ncn2[C@@H]1O[C@H](CS(=O)(=O)CC(C)O)[C@H]2O[C@H](/C=C/c3ccccc3)O[C@H]21` (stereo partly specified): the IC50 amounted to 2.49 µM.
Then `CCNC(=O)Nc1ncnc2c1ncn2[C@@H]1O[C@H](C(=O)O)[C@H]2O[C@H](/C=C/c3ccccc3)O[C@H]21`, with 0.201 µM.
In the case of `CCNC(=O)Nc1ncnc2c1ncn2[C@@H]1O[C@H](CNC(=O)CO)[C@H]2O[C@H](/C=C/c3ccccc3)O[C@H]21`, the IC50 was 2.95 µM.
On to `CCNC(=O)Nc1ncnc2c1ncn2[C@@H]1O[C@H](COCc2ccc(C(=O)O)cc2)[C@H]2O[C@H](/C=C/c3ccccc3)O[C@H]21`, for which the IC50 is 1.31 µM.
Then `CCNC(=O)Nc1ncnc2c1ncn2[C@@H]1O[C@H](COCc2cccc(C(=O)O)c2)[C@H]2O[C@H](/C=C/c3ccccc3)O[C@H]21`, with 0.616 µM; and `CCNC(=O)Nc1ncnc2c1ncn2[C@@H]1O[C@H](CN(CC2CC2C(=O)O)CC2CC2C(=O)O)[C@H]2O[C@H](/C=C/c3ccccc3)O[C@H]21` (stereo partly specified), with 0.58 µM.
As to `CCNC(=O)Nc1ncnc2c1ncn2[C@@H]1O[C@H](CNCC2CC2C(=O)O)[C@H]2O[C@H](/C=C/c3ccccc3)O[C@H]21` (stereo partly specified), the IC50 was 2.7 µM.
As to `CCNC(=O)Nc1ncnc2c1ncn2[C@@H]1O[C@H](CC(=O)O)[C@H]2O[C@H](/C=C/c3ccccc3)O[C@H]21`, the IC50 was 0.663 µM.
Consider `CCNC(=O)Nc1ncnc2c1ncn2[C@@H]1O[C@H](COCc2ccccc2C(=O)O)[C@H]2O[C@H](/C=C/c3ccccc3)O[C@H]21`, for which the IC50 stood at 0.04 µM.
Turning to `CCNC(=O)Nc1ncnc2c1ncn2[C@@H]1O[C@H](COCC(=O)O)[C@H]2O[C@H](/C=C/c3ccccc3)O[C@H]21`, the IC50 was 0.243 µM.
In the case of `CCNC(=O)Nc1ncnc2c1ncn2[C@@H]1O[C@H](CNC(=O)c2cccs2)[C@H]2O[C@H](/C=C/c3ccccc3)O[C@H]21`, the IC50 is 2.23 µM.
